Measurements from patent US20140179681A1, “METHODS AND COMPOSITIONS OF TARGETED DRUG DEVELOPMENT” (priority 2010, published 2014).
Counter-ions that a name gives are not always drawn.

Molecular target: T1, EGFR (Homo sapiens, UniProt P00533)
T1 construct: host or cells: A431
Assay: EGFR in-cell Western (ICW) screening protocol (EGFR inhibition assay)
Assay type: cell-based
Parameters: ICW 1 / ICW 2 / ICW Avg: unit not given here
Conditions: for ICW Avg / ICW 1 / ICW 2: ICW assay; for ICW Avg: average of runs 1 and 2; for ICW 1: run 1; for ICW 2: run 2; for ICW Screen: Table 11, % Inhibition of EGF dependent EGFR phosphorylation in A431 cells, compound 125 μM in assay
Description: The following example describes general EGFR in-cell Western (ICW) screening protocol. Methods are according to Chen et al. (2005) Analytical Biochemistry 338, 136-142 (incorporated herein by reference), except as otherwise noted.
Cell Plates: A431 cells (ATCC # CRL-1555) were grown in Dulbecco's Modified Eagle Medium (DMEM; ATCC #30-2002) supplemented with 10% fetal bovine serum, 105 units/ml pen/strep (Invitrogen #15140155) and 2.1 mM L-glutamine (ATCC #30-2214). Cells were seeded into 96 well tissue culture plates (BD Falcon #353948) at a density of 30,000 cells per well and incubated at 37° C. with 5% CO2 overnight. Two cell plates were prepared for each compound plate.
Serum Starvation: The cells were serum starved prior to compound addition. The media was removed by aspiration and the cells washed with PBS (200 μl/well; Invitrogen #20012-027). The PBS was removed by aspiration and replaced with 200 μl of DMEM (ATCC #30-2002) supplemented with 105 units/ml pen/strep (Invitrogen #15140155) and 2.1 mM 1-glutamine (ATCC #30-2214). The cell plates were incubated at 37° C./5% CO2 for 2 hours.
Compound Plate Preparation: The test compounds were solvated in 100% DMSO (Sigma #472301-2L) at a concentration of 25 mM. Compounds found not to be completely soluble in 100% DMSO at 25 mM were diluted to 10 mM with 100% DMSO and TFA (Fluka #91699) added to a final concentration of 0.2%. 40 μl of test compound was added to the appropriate well of a 96 well plate (Falcon #351190). As controls, 6 μM EGFR kinase inhibitor PD168393 (EMD/Calbiochem #513033) in 100% DMSO and DMSO alone were added to various wells. Prepared compound plates were stored at RT prior to use and at 4° C. long term.
Compound Dilution Plate Preparation: 250 μl of DMEM supplemented with 1 mg/ml BSA (Sigma A3059-10G) was added to the appropriate wells of a 96 well plate to prepare the compound dilution plates. Using a multichannel pipettor, 1.25 μl of compound from the compound plate was transferred into the compound dilution plate.
Compound Addition: The starve media was removed from the cell plates by aspiration. Using a multichannel pipettor, the compound dilution plates were mixed by pipetting up and down three times. 50 μl of mixed, diluted compound was added to each of two rows/columns on each of two cell plates. The cell plates with compound were incubated at 37° C./5% CO2 for 4 hours.
EGF Addition: 20 ng/ml EGF (Upstate #01-107) was prepared in DMEM supplemented with 1 mg/ml BSA. 50 μl of 20 or 0 ng/ml EGF was added to the appropriate wells without the removal of compound. The compound and EGF were mixed by pipetting up and down three times. The plates were incubated at 37° C./5% CO2 for 10 min. In some screening assays the final concentration of EGF used for simulation was 6.6, or 12.5 ng/ml rather than 10 ng/ml.
Fixation and Triton Washing: The EGF+compound was removed by aspiration and 150 μl of freshly prepared Fixation Solution (1×PBS, Sigma P3813-10PK, and 4% Formaldehyde, Pierce #28908) was immediately added. The plates were incubated at RT for 20 min without shaking. The Fixation Solution was removed by aspiration and the plates washed four times with 200 μl each of Triton Wash Solution (1×PBS, Sigma P3813-10PK, and 0.1% Triton X-100, T8787-50ML) for 5 min with gentle shaking.
Blocking and Probing: Following the last Triton Wash, the plates were blocked for 1.5 h at RT with shaking using 150 μl of Odyssey Blocking Buffer (LI-COR #927-40000). The block was removed by aspiration and 50 μl of diluted primary Ab mix was added. The plates were incubated at 4° C. overnight with gentle shaking. The plates were washed five times with 200 μl of PBST (1×PBS, Sigma P3813-10PK, and 0.1% Tween-20, Sigma P9416-50ML) for 5 min each with shaking 50 μl of diluted secondary Ab mix was added and the plates incubated at RT for 1 h with shaking. The plates were washed 5× with 200 μl of PBST for 5 min each with shaking. […]

T1 sequence (P00533 25-1210): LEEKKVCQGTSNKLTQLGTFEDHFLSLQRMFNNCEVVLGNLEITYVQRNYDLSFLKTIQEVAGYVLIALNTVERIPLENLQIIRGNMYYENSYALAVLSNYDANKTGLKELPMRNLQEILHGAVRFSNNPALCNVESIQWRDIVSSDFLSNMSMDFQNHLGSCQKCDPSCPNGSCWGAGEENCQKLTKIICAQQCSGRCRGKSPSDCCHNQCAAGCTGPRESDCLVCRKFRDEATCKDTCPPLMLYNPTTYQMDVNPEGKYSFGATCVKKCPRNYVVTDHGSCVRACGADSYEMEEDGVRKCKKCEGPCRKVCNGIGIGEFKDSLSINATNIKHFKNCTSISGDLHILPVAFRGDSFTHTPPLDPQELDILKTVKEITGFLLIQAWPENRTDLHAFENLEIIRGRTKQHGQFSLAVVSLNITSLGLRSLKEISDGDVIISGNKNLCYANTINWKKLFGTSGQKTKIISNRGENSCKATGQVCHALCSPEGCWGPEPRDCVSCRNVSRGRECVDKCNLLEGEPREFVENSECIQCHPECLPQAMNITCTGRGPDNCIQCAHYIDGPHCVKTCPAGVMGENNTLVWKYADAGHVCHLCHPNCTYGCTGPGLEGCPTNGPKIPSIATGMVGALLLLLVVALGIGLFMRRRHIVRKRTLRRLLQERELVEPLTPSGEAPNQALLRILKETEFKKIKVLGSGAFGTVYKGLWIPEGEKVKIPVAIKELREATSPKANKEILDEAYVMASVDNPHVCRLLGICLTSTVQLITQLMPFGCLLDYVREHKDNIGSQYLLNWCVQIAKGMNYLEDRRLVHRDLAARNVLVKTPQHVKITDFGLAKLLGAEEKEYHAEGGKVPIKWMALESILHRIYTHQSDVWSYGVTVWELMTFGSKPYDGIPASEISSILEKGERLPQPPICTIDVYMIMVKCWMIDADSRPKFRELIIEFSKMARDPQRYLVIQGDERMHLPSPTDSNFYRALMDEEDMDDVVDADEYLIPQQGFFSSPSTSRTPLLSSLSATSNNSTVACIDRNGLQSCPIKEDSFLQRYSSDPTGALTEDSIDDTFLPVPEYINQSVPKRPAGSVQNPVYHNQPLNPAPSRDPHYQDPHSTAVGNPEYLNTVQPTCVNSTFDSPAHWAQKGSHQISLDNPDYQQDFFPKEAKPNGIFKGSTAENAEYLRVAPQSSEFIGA

ICW Screen (ICW Inhibition)	SMILES	also measured
30.052	CN1CCN(S(=O)(=O)c2ccc(NC(=S)NC(=O)c3ccccc3)cc2)CC1 [AD4-11420]	–
27.176	CN1CCN(S(=O)(=O)c2ccc(NC(=S)NC(=O)C3CCCC3)cc2)CC1 [AD4-11973]	–
27.585	CCN(c1ccccc1)S(=O)(=O)c1ccc(NC(=S)NC(=O)C2CCCCC2)cc1 [AD4-11407]	–
26.73	C=CCN(CC=C)S(=O)(=O)c1ccc(NC(=S)NC(=O)/C=C/c2ccc(F)cc2)cc1 [AD4-12157]	–
26.301	COc1ccc(CC(=O)NC(=S)Nc2ccc(S(=O)(=O)Nc3nc(C)cc(C)n3)cc2)cc1 [AD4-11395]	–
26.212	Cc1ccc(NS(=O)(=O)c2ccc(NC(=S)NC(=O)CCc3ccccc3)cc2)cc1C [AD4-12103]	–
28.852	CC(C)C(=O)NC(=S)Nc1ccc(S(=O)(=O)N(C)Cc2ccccc2)cc1 [AD4-12051]	–
25.689	CCc1nnc(NS(=O)(=O)c2ccc(NC(=S)NC(=O)/C=C/c3ccc(C)cc3)cc2)s1 [AD4-11879]	–
25.191	O=C(NC(=S)Nc1ccc(S(=O)(=O)N2CCc3ccccc32)cc1)C1CCCC1 [AD4-12291]	–
–	Cc1cc(-c2ccccc2)nc(Nc2nc(C)c3cc(C)c(C)cc3n2)n1 [compound 11309]	ICW Avg: 37.00; ICW 1: 33.31; ICW 2: 40.70
28.892	CCc1nnc(NS(=O)(=O)c2ccc(NC(=S)NC(=O)C34CC5CC(CC(C5)C3)C4)cc2)s1 [AD4-11385]	–
25.611	CCOc1ccc(NS(=O)(=O)c2ccc(NC(=S)NC(=O)CC(C)C)cc2)cc1 [AD4-12014]	–
29.295	CC(=O)NC(=S)Nc1ccc(S(=O)(=O)N2CCc3ccccc32)cc1 [AD4-10103]	–
28.101	CN(Cc1ccccc1)S(=O)(=O)c1ccc(NC(=S)NC(=O)C2CCCCC2)cc1 [AD4-11410]	–
26.918	CC(C)(C)NS(=O)(=O)c1ccc(NC(=S)NC(=O)C2CCC2)cc1 [AD4-11976]	–
26.497	COc1cc(NS(=O)(=O)c2ccc(NC(=S)NC(=O)CCc3ccccc3)cc2)nc(OC)n1 [AD4-11405]	–
27.36	Cc1cc(NS(=O)(=O)c2ccc(NC(=S)NC(=O)/C=C/c3cccs3)cc2)no1 [AD4-11863]	–
26.671	Cc1cc(C)nc(NS(=O)(=O)c2ccc(NC(=S)NC(=O)C3CCCC3)cc2)n1 [AD4-12163]	–
28.422	CN1CCN(S(=O)(=O)c2ccc(NC(=S)NC(=O)CCc3ccccc3)cc2)CC1 [AD4-11424]	–
27.18	COc1ccc(NS(=O)(=O)c2ccc(NC(=S)NC(=O)C(C)(C)C)cc2)cc1 [AD4-11994]	–

ICW Screen (ICW Inhibition)	SMILES	also measured
26.851	COc1ccc(CC(=O)NC(=S)Nc2ccc(S(=O)(=O)N3CCOCC3)cc2)cc1 [AD4-11406]	–
–	CCc1ccc2oc(=O)cc(CN3CCN(CCO)CC3)c2c1 [AD4-10178]	ICW Screen: 34.907
25.368	CN(C1CCCCC1)S(=O)(=O)c1ccc(NC(=S)NC(=O)C2CC2)cc1 [AD4-11986]	–
30.242	CCc1nnc(NS(=O)(=O)c2ccc(NC(=S)NC(=O)/C=C/c3ccccc3)cc2)s1 [AD4-11861]	–
–	Cc1cc2oc(=O)cc(CN3CCN(CCO)CC3)c2cc1C [AD4-10176]	ICW Screen: 42.066
–	Cc1cc(C)c2nc(Nc3nc4c(c(=O)[nH]3)CCCC4)nc(C)c2c1 [11483 + TFA]	ICW Avg: 29.27; ICW 1: 29.55; ICW 2: 28.99
25.058	COc1ccc(CC(=O)NC(=S)Nc2ccc(S(=O)(=O)NC(C)(C)C)cc2)cc1 [AD4-12133]	–
27.713	CC(=O)NS(=O)(=O)c1ccc(NC(=S)NC(=O)Cc2cccc3ccccc23)cc1 [AD4-12071]	–
28.127	COc1cc(NS(=O)(=O)c2ccc(NC(=S)NC(=O)CCc3ccc(F)cc3)cc2)ncn1 [AD4-11384]	–
25.557	Cc1ccc(OCC(=O)NC(=S)Nc2ccc(S(=O)(=O)N3CCOCC3)cc2)c(Br)c1 [AD4-11401]	–
26.098	COc1ccc(NS(=O)(=O)c2ccc(NC(=S)NC(=O)C3CCCC3)cc2)cc1 [AD4-11523]	–
–	CCCc1c[nH]c(Nc2nc(C)c3ccccc3n2)nc1=O [compound 12662]	ICW Avg: 25.21; ICW 1: 21.64; ICW 2: 28.79
26.355	COc1ccc(NS(=O)(=O)c2ccc(NC(=S)NC(=O)/C=C/c3ccccc3)cc2)nn1 [AD4-11888]	–
25.347	COc1ccc(CC(=O)NC(=S)Nc2ccc(S(=O)(=O)NCCc3ccccc3)cc2)cc1 [AD4-10622]	–
26.967	O=C(CCc1ccccc1)NC(=S)Nc1ccc(S(=O)(=O)N2CCOCC2)cc1 [AD4-12147]	–
27.431	COc1cc(OC)nc(NS(=O)(=O)c2ccc(NC(=S)NC(=O)C3CCCC3)cc2)n1 [AD4-11536]	–
–	Cc1cc(C)c2nc(Nc3nc(C)cc(=O)[nH]3)nc(C)c2c1 [11607 + TFA]	ICW Avg: 42.71; ICW 1: 43.69; ICW 2: 41.73
29.977	CN(Cc1ccccc1)S(=O)(=O)c1ccc(NC(=S)NC(=O)C2CCCC2)cc1 [AD4-12039]	–
25.019	C=CCN(CC=C)S(=O)(=O)c1ccc(NC(=S)NC(=O)/C=C/c2ccccc2)cc1 [AD4-12092]	–
